Legend:
MELAS cybrid cells = experiment: Oxygen consumption of MELAS cybrid cells (Seahorse); assay type: cell-based, human; details: 10 μM, 48 h
Protocol: FIGS. 7A-7E: MNRR1 activation by tizoxanide enhances mtDNA biogenesis and mitophagy to shift heteroplasmy in MELAS cells. FIG. 7A: Oxygen consumption measured from MELAS cybrid cells treated with vehicle (DMSO) or tizoxanide (10 μM) for 48 h (n=4 biological replicates, error bars represent SE). FIG. 7B: Haelll restriction enzyme digestion of a PCR-amplified fragment of mtDNA harboring the m.3243A>G mutation from DW7 cells treated with vehicle (DMSO) or tizoxanide (10 μM) for 144 h. […] FIG. 7C: Genes identified using qPCR of MELAS cybrid cells stably overexpressing EV or MNRR1. FIG. 7D: MtDNA levels are shown relative to nuclear DNA (nDNA) (GAPDH) (n=5 biological replicates, error bars represent SE). […]
FIGS. 11A-11F: RBPJk and HIF2α compete for binding at the ORE in the MNRR1 promoter to regulate transcription. […] FIG. 11E: Oxygen consumption measured from Control or HIFα knockdown (KD) MELAS cybrid cells. […] FIG. 11F: Left, Oxygen consumption measured from MELAS cybrid cells treated with vehicle (DMSO) or PT2385 (10 μM), an inhibitor of HIF2α function, for 24 h. […]
(§1) Intact cellular oxygen consumption and measurement of ATP: Cellular oxygen consumption was measured with a Seahorse XFe24 Bioanalyzer (Agilent). Cells were plated at a concentration of 3.5×10^4 per well a day prior to treatment and basal oxygen consumption was measured 48 h after treatments, as described. […]

MNRR1 = MNRR1 immunoblot in several other human cell lines; assay type: cell-based; details: 10 μM, 24 h
Protocol: FIGS. 5A-5E: FIG. 5A: Venn diagram showing activators identified in HEK293 and MDA-MB-468 cells. FIG. 5B: Equal amounts of MELAS cells treated with Vehicle (DMSO) or various MNRR1 activating compounds (10 μM) for 24 h were separated on an SDS-PAGE gel and probed for MNRR1 levels. Actin was probed as a loading control and numbers below represent an average and standard deviation (SD) of two biological replicates. FIGS. 5C-5E: Equal amounts of cell lysates from various cell lines treated with vehicle (DMSO) or tizoxanide (10 μM) for 24 h were separated on an SDS-PAGE gel and probed for MNRR1 plus loading controls GAPDH or tubulin.
Immunoblotting: Immunoblotting was performed as described previously. Cell lysates for immunoblotting were prepared using RIPA buffer (Abcam, Waltham, MA) and included a protease and phosphatase inhibitor cocktail (Sigma, St. Louis, MO). Total protein extracts were obtained by centrifugation at 21,000×g for 30 min at 4° C. The clear supernatants were transferred to new tubes and quantified using the Bradford reagent with BSA as standard (BioRad, Hercules. CA). […] For detection after immunoblotting, the SuperSignal™ West Pico PLUS substrate (ThermoFisher, Waltham, MA) was used to generate chemiluminescence signal, which was detected with X-Ray film (RadTech, Vassar, MI).

[1] = system: MELAS patient fibroblasts; experiment: Oxygen consumption and mitochondrial ATP rate in MELAS patient fibroblasts; assay type: cell-based, human; details: 10 μM, 48 h
Protocol: FIGS. 8A-8D: MNRR1 activation using tizoxanide enhances mitochondrial function, mitophagy, and protects from LPS-induced inflammation in MELAS patient fibroblasts. FIG. 8A: Equal amounts of lysates from MELAS patient fibroblast (MF 1, 2, or 3) lysates treated with vehicle (DMSO) or tizoxanide (10 μM) for 48 h were separated on an SDS-PAGE gel and probed for LC3B, PGC1a, MNRR1, MTCO2, TOM20, and phospho-ubiquitin (S65) levels. GAPDH orTubulin was probed as a loading control. FIG. 8B: Oxygen consumption measured from MELAS patient fibroblasts treated with vehicle (DMSO) or tizoxanide (10 μM) for 48 h (n=4 biological replicates, mean±SE). FIG. 8C: Mitochondrial ATP rate measured in MELAS patient fibroblasts treated with vehicle (DMSO) or tizoxanide (10 μM) for 48 h (n=4 biological replicates, mean±SE). FIG. 8D: Heatmap representation of ROS and TNFα transcript levels from MELAS patient fibroblasts treated with vehicle (DMSO), LPS (DMSO+500 ng/mL LPS), or LPS plus tizoxanide (10 μM tizoxanide+500 ng/mL LPS) for 24 h (n=4 biological replicates). […]
as §1

Compound: O=C(Nc1ncc([N+](=O)[O-])s1)c1ccccc1O [tizoxanide, Tizoxanide]
- oxygen consumption (MELAS cybrid cells): increased
- MNRR1 level (MNRR1): increase of MNRR1
- OCR [1]: enhanced
- mitochondrial ATP levels [1]: enhanced
